Measurements as given in US7732429B2 (Trustees of Tufts College, priority 1994, dated 2010).

How the values were obtained:
[1] = target: T1, efflux protein (Escherichia coli, UniProt P02980); assay: everted membrane vesicle assay, blocking activity of 13-S-derivatives; type: biochemical; settings: blocking activity against the efflux protein, everted membrane vesicle assay
T1 sequence (P02980 1-401): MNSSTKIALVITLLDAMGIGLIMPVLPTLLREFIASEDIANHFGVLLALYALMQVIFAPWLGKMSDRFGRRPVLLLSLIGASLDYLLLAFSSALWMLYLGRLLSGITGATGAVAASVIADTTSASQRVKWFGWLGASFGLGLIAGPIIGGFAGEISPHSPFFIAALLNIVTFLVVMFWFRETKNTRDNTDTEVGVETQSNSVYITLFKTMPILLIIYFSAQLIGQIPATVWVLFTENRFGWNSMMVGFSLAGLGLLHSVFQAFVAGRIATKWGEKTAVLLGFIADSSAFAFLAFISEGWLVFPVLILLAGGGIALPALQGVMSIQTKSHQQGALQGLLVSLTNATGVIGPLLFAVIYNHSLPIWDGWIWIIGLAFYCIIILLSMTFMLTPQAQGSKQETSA

[2] = system: E. faecalis 211 (Tet M); assay: MIC/MLC chart, analog with and without doxycycline; type: cell-based
[3] = system: S. aureus 4250 (Tet K); assay: MIC/MLC chart, analog with and without doxycycline; type: cell-based
[4] = system: E. coli DI-299 (Tet A); assay: MIC/MLC chart, analog with and without doxycycline; type: cell-based; parameters: key to growth/killing, Analog + Doxy / growth/killing, Doxy Control / growth/killing, Analog Control / growth in MIC/MLC chart: +=growth; 0=no growth (MIC); ↓=killing; ? =99.9% killing (MLC); □=no growth, but no microbiologic testing;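 further: bacterial growth inhibition and killing in broth, each agent tested alone or combined with doxycycline across two-fold serial dilutions, overnight incubation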
[5] = system: E. faecalis 158 (Tet L); assay: MIC/MLC chart, analog with and without doxycycline; type: cell-based
[6] = Analog Control: analog alone 1.56 μg/ml
[7] = Analog Control: analog alone .195 μg/ml
[8] = Analog Control: analog alone .39 μg/ml
[9] = Analog Control: analog alone .78 μg/ml
[10] = analog 1.56 μg/ml + doxycycline 1.55 μg/ml
[11] = analog 1.56 μg/ml + doxycycline 3.1 μg/ml
[12] = analog 1.56 μg/ml + doxycycline 6.2 μg/ml
[13] = analog .195 μg/ml + doxycycline 1.56 μg/ml
[14] = analog .195 μg/ml + doxycycline 3.12 μg/ml
[15] = analog .195 μg/ml + doxycycline 6.25 μg/ml
[16] = analog .195 μg/ml + doxycycline 12.5 μg/ml
[17] = analog .39 μg/ml + doxycycline 1.56 μg/ml
[18] = analog .39 μg/ml + doxycycline 3.12 μg/ml
[19] = analog .39 μg/ml + doxycycline 6.25 μg/ml
[20] = analog .39 μg/ml + doxycycline 12.5 μg/ml
[21] = analog .78 μg/ml + doxycycline 1.56 μg/ml
[22] = analog .78 μg/ml + doxycycline 3.12 μg/ml
[23] = analog .78 μg/ml + doxycycline 6.23 μg/ml
[24] = Doxy Control: doxycycline alone 1.56 μg/ml
[25] = Doxy Control: doxycycline alone 3.12 μg/ml
[26] = Doxy Control: doxycycline alone 6.25 μg/ml
[27] = Doxy Control: doxycycline alone 12.5 μg/ml

## CCCCSCC1c2cccc(O)c2C(=O)C2=C(O)C3(O)C(=O)C(C(N)=O)=C(O)C(N(C)C)C3C(O)C21 (stereo not shown) [Butyl]
[1]
  Ki: 0.5 µg/mL

## CCCSCC1c2cccc(O)c2C(=O)C2=C(O)C3(O)C(=O)C(C(N)=O)=C(O)C(N(C)C)C3C(OC(=O)CC)C21 (stereo not shown) [Cmpd 13-propyl-thio-5-proprionate]
[2]; [6]
  growth in MIC/MLC chart: +
[2]; [7]
  growth in MIC/MLC chart: +
[2]; [8]
  growth in MIC/MLC chart: +
[2]; [9]
  growth in MIC/MLC chart: +
[2]; [10]
  growth in MIC/MLC chart: +
[2]; [11]
  growth in MIC/MLC chart: +
[2]; [12]
  growth in MIC/MLC chart: +
[2]; [13]
  growth in MIC/MLC chart: +
[2]; [14]
  growth in MIC/MLC chart: +
[2]; [15]
  growth in MIC/MLC chart: +
[2]; [16]
  growth in MIC/MLC chart: +
[2]; [17]
  growth in MIC/MLC chart: +
[2]; [18]
  growth in MIC/MLC chart: +
[2]; [19]
  growth in MIC/MLC chart: +
[2]; [20]
  growth in MIC/MLC chart: +
[2]; [21]
  growth in MIC/MLC chart: +
[2]; [22]
  growth in MIC/MLC chart: +
[2]; [23]
  growth in MIC/MLC chart: +
[3]; [7]
  growth in MIC/MLC chart: +
[3]; [13]
  growth in MIC/MLC chart: +
[4]; [6]
  growth in MIC/MLC chart: +
[4]; Analog Control: analog alone 3.12 μg/ml
  growth in MIC/MLC chart: +
[4]; Analog Control: analog alone 6.25 μg/ml
  growth in MIC/MLC chart: +
[4]; Analog Control: analog alone 12.5 μg/ml
  growth in MIC/MLC chart: +
[4]; Analog Control: analog alone 25.0 μg/ml
  growth in MIC/MLC chart: +
[4]; Analog Control: analog alone 50.00 μg/ml
  growth in MIC/MLC chart: +
[4]; [7]
  growth in MIC/MLC chart: +
[4]; [8]
  growth in MIC/MLC chart: +
[4]; [9]
  growth in MIC/MLC chart: +
[4]; [10]
  growth in MIC/MLC chart: +
[4]; [11]
  growth in MIC/MLC chart: +
[4]; [12]
  growth in MIC/MLC chart: +
[4]; analog 3.12 μg/ml + doxycycline 1.53 μg/ml
  growth in MIC/MLC chart: +
[4]; analog 3.12 μg/ml + doxycycline 3.05 μg/ml
  growth in MIC/MLC chart: +
[4]; analog 3.12 μg/ml + doxycycline 6.1 μg/ml
  growth in MIC/MLC chart: +
[4]; analog 6.25 μg/ml + doxycycline 3.0 μg/ml
  growth in MIC/MLC chart: +
[4]; analog 6.25 μg/ml + doxycycline 5.9 μg/ml
  growth in MIC/MLC chart: +
[4]; analog 6.25 μg/ml + doxycycline […]
  growth in MIC/MLC chart: +
[4]; analog 12.5 μg/ml + doxycycline 2.8 μg/ml
  growth in MIC/MLC chart: +
[4]; analog 12.5 μg/ml + doxycycline 5.5 μg/ml
  growth in MIC/MLC chart: +
[4]; analog 12.5 μg/ml + doxycycline […]
  growth in MIC/MLC chart: +
[4]; analog 25 μg/ml + doxycycline 2.4 μg/ml
  growth in MIC/MLC chart: +
[4]; analog 25 μg/ml + doxycycline 4.7 μg/ml
  growth in MIC/MLC chart: +
[4]; analog 25 μg/ml + doxycycline […]
  growth in MIC/MLC chart: +
[4]; analog 50 μg/ml + doxycycline 1.56 μg/ml
  growth in MIC/MLC chart: +
[4]; analog 50 μg/ml + doxycycline 3.12 μg/ml
  growth in MIC/MLC chart: +
[4]; analog 50 μg/ml + doxycycline .78 μg/ml
  growth in MIC/MLC chart: +
[4]; [13]
  growth in MIC/MLC chart: +
[4]; [14]
  growth in MIC/MLC chart: +
[4]; [15]
  growth in MIC/MLC chart: +
[4]; [16]
  growth in MIC/MLC chart: +
[4]; [17]
  growth in MIC/MLC chart: +
[4]; [18]
  growth in MIC/MLC chart: +
[4]; [19]
  growth in MIC/MLC chart: +
[4]; [20]
  growth in MIC/MLC chart: +
[4]; [21]
  growth in MIC/MLC chart: +
[4]; [22]
  growth in MIC/MLC chart: +
[4]; [23]
  growth in MIC/MLC chart: +
[4]; analog .78 μg/ml + doxycycline 12.4 μg/ml
  growth in MIC/MLC chart: +
[5]; [7]
  growth in MIC/MLC chart: +
[5]; [8]
  growth in MIC/MLC chart: +
[5]; [9]
  growth in MIC/MLC chart: +
[5]; [13]
  growth in MIC/MLC chart: +
[5]; [14]
  growth in MIC/MLC chart: +

## CCCCCCCCCCSCC1c2cccc(O)c2C(=O)C2=C(O)C3(O)C(=O)C(C(N)=O)=C(O)C(N(C)C)C3C(O)C21 (stereo not shown) [Decyl]
[1]
  Ki: 8.0 µg/mL

## C[C@H]1c2cccc(O)c2C(O)=C2C(=O)[C@]3(O)C(O)=C(C(N)=O)C(=O)[C@@H](N(C)C)[C@@H]3[C@@H](O)[C@@H]21 [Doxy, Doxycycline, reference compound]
[2]; [24]
  growth in MIC/MLC chart: +
[2]; [25]
  growth in MIC/MLC chart: +
[2]; [26]
  growth in MIC/MLC chart: +
[2]; [27]
  growth in MIC/MLC chart: +
[2]; Doxy alone 1.56 μg/ml
  growth/killing, Doxy Control: +
[2]; Doxy alone 3.12 μg/ml
  growth/killing, Doxy Control: +
[2]; Doxy alone 6.25 μg/ml
  growth/killing, Doxy Control: +
[2]; Doxy alone 12.5 μg/ml
  growth/killing, Doxy Control: +
[3]; [24]
  growth in MIC/MLC chart: +
[3]; [25]
  growth in MIC/MLC chart: +
[3]; [26]
  growth in MIC/MLC chart: +
[3]; [27]
  growth in MIC/MLC chart: +
[3]; Doxy alone 1.56 μg/ml
  growth/killing, Doxy Control: +
[3]; Doxy alone 3.12 μg/ml
  growth/killing, Doxy Control: +
[3]; Doxy alone 6.25 μg/ml
  growth/killing, Doxy Control: +
[3]; Doxy alone 12.5 μg/ml
  growth/killing, Doxy Control: +
[4]; [24]
  growth in MIC/MLC chart: +
[4]; [25]
  growth in MIC/MLC chart: +
[4]; [26]
  growth in MIC/MLC chart: +
[4]; [27]
  growth in MIC/MLC chart: +
[4]; Doxy Control: doxycycline alone 25.0 μg/ml
  growth in MIC/MLC chart: +
[4]; Doxy alone 1.56 μg/ml
  growth/killing, Doxy Control: +
[4]; Doxy alone 3.12 μg/ml
  growth/killing, Doxy Control: +
[4]; Doxy alone 6.25 μg/ml
  growth/killing, Doxy Control: +
[4]; Doxy alone 12.5 μg/ml
  growth/killing, Doxy Control: +
[4]; Doxy alone 25.0 μg/ml
  growth/killing, Doxy Control: +
[5]; [24]
  growth in MIC/MLC chart: +
[5]; [25]
  growth in MIC/MLC chart: +
[5]; [26]
  growth in MIC/MLC chart: +
[5]; Doxy alone 1.56 μg/ml
  growth/killing, Doxy Control: +
[5]; Doxy alone 3.12 μg/ml
  growth/killing, Doxy Control: +
[5]; Doxy alone 6.25 μg/ml
  growth/killing, Doxy Control: +

## CCCCCCSCC1c2cccc(O)c2C(=O)C2=C(O)C3(O)C(=O)C(C(N)=O)=C(O)C(N(C)C)C3C(O)C21 (stereo not shown) [Hexyl]
[1]
  Ki: 5530 nM

## CC(C)CSCC1c2cccc(O)c2C(=O)C2=C(O)C3(O)C(=O)C(C(N)=O)=C(O)C(N(C)C)C3C(O)C21 (stereo not shown) [Isobutyl]
[1]
  Ki: 188 nM
